Measurements published in PubChem BioAssay (NCI).
Values joined by “and” are separate entries in the source; they are usually repeats but may differ in a detail not shown here. Equal entries are not always repeated.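 Five compound concentrations were applied to cells in 96-well plates for 48 hours; endpoints were derived by simple linear interpolation of the resulting dose-response curve. GI50 is the concentration that inhibits growth by half. The concentration for full growth arrest is given as TGI.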

Assays:
Assay in all cases: NCI anticancer screen, dose series, 48 h
SK-MEL-2 melanoma = system: SK-MEL-2 melanoma
OVCAR-5 ovarian = system: OVCAR-5 ovarian
SF-539 CNS = system: SF-539 CNS
HT29 colon = system: HT29 colon
CAKI-1 renal = system: CAKI-1 renal
OVCAR-3 ovarian = system: OVCAR-3 ovarian
MDA-MB-231 breast = system: MDA-MB-231 breast
OVCAR-4 ovarian = system: OVCAR-4 ovarian
HCC-2998 colon = system: HCC-2998 colon
NCI-H460 lung = system: NCI-H460 lung

## CCOc1cccc(/C=N/NC(=O)c2cccc(Nc3ccnc(C(F)(F)F)c3)c2)c1O
SK-MEL-2 melanoma
  GI50: 8.5 µM
  TGI: 39.9 µM
OVCAR-5 ovarian
  GI50: 2.33 µM
  TGI: 60.7 µM
SF-539 CNS
  GI50: 1.32 µM
  TGI: 10.6 µM
HT29 colon
  GI50: 5.34 µM
  TGI: > 82.7 µM
CAKI-1 renal
  GI50: 0.772 µM
  TGI: 32 µM
OVCAR-3 ovarian
  GI50: 0.401 µM
  TGI: 24.4 µM
MDA-MB-231 breast
  GI50: 0.888 µM
  TGI: > 91.1 µM
OVCAR-4 ovarian
  GI50: 0.723 µM
  TGI: 48.6 µM
HCC-2998 colon
  GI50: 1.45 µM
  TGI: > 100 µM
NCI-H460 lung
  GI50: 1.17 µM
  TGI: 9.53 µM

## CCCOC(=O)N[C@H]1CCc2c(Cl)c(OC)c(OC)c(OC)c2-c2ccc(SC)c(=O)cc21
SK-MEL-2 melanoma
  GI50: 1.88 µM
  TGI: 29.9 µM
OVCAR-5 ovarian
  GI50: < 0.013 µM
  TGI: > 76.7 µM
SF-539 CNS
  GI50: < 0.01 µM
  TGI: < 0.0356 µM
HT29 colon
  GI50: < 0.01 µM
  TGI: 37.6 µM
CAKI-1 renal
  GI50: < 0.0226 µM
  TGI: 14.1 µM
OVCAR-3 ovarian
  GI50: < 0.01 µM
  TGI: < 0.01 µM
MDA-MB-231 breast
  GI50: < 0.01 µM
  TGI: 4.71 µM
OVCAR-4 ovarian
  GI50: < 0.012 µM
  TGI: > 100 µM
HCC-2998 colon
  GI50: < 0.0112 µM
  TGI: 0.7 µM
NCI-H460 lung
  GI50: < 0.0112 µM
  TGI: 0.944 µM

## COc1ccc2c(c1)C(=O)/C(=C/c1cccc(OCC(=O)c3ccccc3)c1)O2
SK-MEL-2 melanoma
  GI50: 16.7 µM
  TGI: 30.5 µM
OVCAR-5 ovarian
  GI50: 4.31 µM
  TGI: 14.5 µM
SF-539 CNS
  GI50: 3.79 µM
  TGI: 13.8 µM
HT29 colon
  GI50: 3.1 µM
  TGI: 7.56 µM
CAKI-1 renal
  GI50: 3.16 µM
  TGI: 11.5 µM
OVCAR-3 ovarian
  GI50: 1.83 µM
  TGI: 3.36 µM
MDA-MB-231 breast
  GI50: 7.62 µM
  TGI: 23.2 µM
OVCAR-4 ovarian
  GI50: 2.72 µM
  TGI: 6.37 µM
HCC-2998 colon
  GI50: 1.74 µM
  TGI: 3.16 µM
NCI-H460 lung
  GI50: 14.4 µM
  TGI: 36 µM

## CCN(CC)CCNC(Cc1ccccc1)c1ccc(OCc2ccccc2)cc1 (stereo not drawn)
SK-MEL-2 melanoma
  GI50: 3.42 µM
  TGI: 9.74 µM
OVCAR-5 ovarian
  GI50: 7.02 µM
  TGI: 22.4 µM
SF-539 CNS
  GI50: 5.26 µM
  TGI: 18.6 µM
HT29 colon
  GI50: 2.44 µM
  TGI: 11.8 µM
CAKI-1 renal
  GI50: 4.52 µM
  TGI: 16.7 µM
OVCAR-3 ovarian
  GI50: 11.8 µM
  TGI: 25.8 µM
MDA-MB-231 breast
  GI50: 1.92 µM
  TGI: 6.65 µM
OVCAR-4 ovarian
  GI50: 5.42 µM
  TGI: 19.4 µM
HCC-2998 colon
  GI50: 5.17 µM
  TGI: 17.4 µM
NCI-H460 lung
  GI50: 3.56 µM
  TGI: 12.9 µM

## CNC(=O)OCc1c(COC(=O)NC)c(-c2ccc(-c3ccccc3)cc2)n(C)c1C
SK-MEL-2 melanoma
  TGI: 4.96 µM
OVCAR-5 ovarian
  TGI: 8.26 µM
SF-539 CNS
  TGI: 8.37 µM
HT29 colon
  TGI: 13.9 µM
CAKI-1 renal
  TGI: 5.14 µM
OVCAR-3 ovarian
  TGI: 7.88 µM
MDA-MB-231 breast
  TGI: 10.2 µM
OVCAR-4 ovarian
  TGI: 10.9 µM
HCC-2998 colon
  TGI: 13.1 µM
NCI-H460 lung
  TGI: 12.2 µM

## COc1ccc2c(c1)NC1=C(C(=O)OC1)C2c1cc(OC)c(OC)c(OC)c1 (stereo not drawn)
SK-MEL-2 melanoma
  GI50: < 0.01 µM
  TGI: > 100 µM
OVCAR-5 ovarian
  GI50: < 0.01 µM
  TGI: > 100 µM
SF-539 CNS
  GI50: < 0.01 µM
  TGI: 18.6 µM
HT29 colon
  GI50: < 0.01 µM
  TGI: > 100 µM
CAKI-1 renal
  GI50: < 0.0127 µM
  TGI: > 100 µM
OVCAR-3 ovarian
  GI50: < 0.01 µM
  TGI: < 0.01 µM
MDA-MB-231 breast
  GI50: < 0.01 µM
  TGI: < 0.01 µM
OVCAR-4 ovarian
  GI50: < 0.0375 µM
  TGI: > 100 µM
HCC-2998 colon
  GI50: < 0.01 µM
NCI-H460 lung
  GI50: < 0.01 µM
  TGI: > 100 µM

## Cc1nnc(-c2ccc(C)c(-c3ccc(C(=O)Nc4cccc(C#N)c4)cc3)c2)o1
SK-MEL-2 melanoma
  GI50: > 25 µM
  TGI: > 25 µM
OVCAR-5 ovarian
  GI50: > 25 µM
  TGI: > 25 µM
SF-539 CNS
  GI50: > 25 µM
  TGI: > 25 µM
HT29 colon
  GI50: > 25 µM
  TGI: > 25 µM
CAKI-1 renal
  GI50: > 25 µM
  TGI: > 25 µM
OVCAR-3 ovarian
  GI50: > 25 µM
  TGI: > 25 µM
MDA-MB-231 breast
  GI50: > 25 µM
  TGI: > 25 µM
OVCAR-4 ovarian
  GI50: 17.7 µM
  TGI: > 25 µM
HCC-2998 colon
  GI50: > 25 µM
  TGI: > 25 µM
NCI-H460 lung
  GI50: > 25 µM
  TGI: > 25 µM

## C=CC(=O)N1CCC(Oc2cc3c(Nc4ccc(Cl)c(Cl)c4F)ncnc3cc2OC)CC1
SK-MEL-2 melanoma
  GI50: 6.15 µM and 1.95 µM
  TGI: 27 µM and 6.41 µM
OVCAR-5 ovarian
  GI50: 4.93 µM and 3.03 µM
  TGI: 39 µM and > 10 µM
SF-539 CNS
  GI50: 1.57 µM and 1.78 µM
  TGI: 10 µM and 8.4 µM
HT29 colon
  GI50: 1.71 µM and 1.52 µM
  TGI: 13.7 µM and > 9.34 µM
CAKI-1 renal
  TGI: 12.6 µM and 2.36 µM
OVCAR-3 ovarian
  GI50: 2.63 µM and 1 µM
  TGI: 16.5 µM and > 8.17 µM
MDA-MB-231 breast
  GI50: 3.79 µM and 1.65 µM
  TGI: 23.8 µM and > 9.63 µM
OVCAR-4 ovarian
  GI50: 2.65 µM and 2.56 µM
  TGI: 31.5 µM and > 10 µM
HCC-2998 colon
  GI50: 7.61 µM and 2.52 µM
  TGI: 24.8 µM and > 10 µM
NCI-H460 lung
  GI50: 11.1 µM and 5.88 µM
  TGI: 33.2 µM and > 10 µM

## NCCCNCCS
SK-MEL-2 melanoma
  TGI: > 100 µM
OVCAR-5 ovarian
  TGI: > 100 µM
SF-539 CNS
  TGI: > 100 µM
HT29 colon
  TGI: > 100 µM
CAKI-1 renal
  TGI: > 100 µM
OVCAR-3 ovarian
  TGI: > 100 µM
MDA-MB-231 breast
  TGI: > 100 µM
OVCAR-4 ovarian
  TGI: > 100 µM
HCC-2998 colon
  TGI: > 100 µM
NCI-H460 lung
  TGI: > 100 µM

## Cc1ccc(C2=C(c3ccc(C)cc3)C3(c4ccc(C)cc4)C4C(=O)OC(=O)C4C2(c2ccc(C)cc2)S3=O)cc1 (stereo not drawn)
SK-MEL-2 melanoma
  GI50: 16.2 µM
  TGI: 78.8 µM
OVCAR-5 ovarian
  GI50: 96.4 µM
  TGI: > 100 µM
SF-539 CNS
  GI50: 6.3 µM
  TGI: 31.9 µM
HT29 colon
  GI50: 25.3 µM
  TGI: > 100 µM
CAKI-1 renal
  GI50: 26.3 µM
  TGI: > 100 µM
OVCAR-3 ovarian
  GI50: 15.5 µM
  TGI: 39.4 µM
MDA-MB-231 breast
  GI50: 15.6 µM
  TGI: 45.6 µM
OVCAR-4 ovarian
  GI50: 59.6 µM
  TGI: > 100 µM
HCC-2998 colon
  GI50: 21.5 µM
  TGI: 55.5 µM
NCI-H460 lung
  GI50: 24.9 µM
  TGI: > 100 µM

## CCN1C(=O)c2ccc3c4c(ccc(c24)C1=O)C(=O)N(CCCNCc1ccccc1OC)C3=O
SK-MEL-2 melanoma
  GI50: 1.55 µM
  TGI: 3.48 µM
OVCAR-5 ovarian
  GI50: 1.35 µM
  TGI: 3.74 µM
SF-539 CNS
  GI50: 1.16 µM
  TGI: 2.47 µM
HT29 colon
  GI50: 0.404 µM
  TGI: 3.67 µM
CAKI-1 renal
  GI50: 0.791 µM
  TGI: 2.47 µM
OVCAR-3 ovarian
  GI50: 0.335 µM
  TGI: 1.04 µM
MDA-MB-231 breast
  GI50: 0.791 µM
  TGI: 9.31 µM
OVCAR-4 ovarian
  GI50: 0.152 µM
  TGI: 0.345 µM
HCC-2998 colon
  GI50: 0.632 µM
  TGI: 1.89 µM
NCI-H460 lung
  GI50: 0.437 µM
  TGI: 2.09 µM
